Test results taken from patent US10369167B2, “Continuously expressed therapeutic RNAs for targeted protein binding and methods for their use” (priority 2016, dated 2019).
Values joined by “and” are separate entries in the source; they are usually repeats but may differ in a detail not shown here. Equal values may be shown once.

Experiments:
HIV-1 Ba-L strain = assay: HIV challenge of stable Ghost3 (Ghost3+CXCR4+CCR5) cells, P24 assay; assay type: cell-based
Experimental: Ghost 3+CXCR4+CCR5 cells, HIV NL4-3 and Ba-L strains were obtained from the NIH AIDS Reagent Program. Ghost cells and HEK293 cells (ATCC CRL-1573) were grown on DMEM supplemented with 10% FBS and 1 mM Glutamine. CCRF-CEM (ATCC CRM-CCL-119) cells were grown in RPMI supplemented with 10% FBS and 1 mM Glutamine. HEK293 and Ghost cells were transfected with Lipofectamine 2000 according to the manufacturer's protocol (ThermoFisher, Waltham, Mass., USA). To generate stable HEK293 cell lines, 2 million cells were transfected with pJR255-based plasmids that express aptamers alone, shLuc, or shLuc-aptamer fusions. Transfected cells were selected with G418 (Gold Biotechnology, St. Louis, Mo., USA) for 10 to 14 days, followed by Fluorescent Activated Cell Sorting (FACS) to isolated mCherry positive cells. Typically, the brightest 10 to 30% of cells were collected. Second FACS was performed 7 to 10 days after the first sort to isolate stable cell populations. […] Ghost cells were already G418 resistant, therefore, no selection step was performed. 0.5M cells were transfected with pJR255 based plasmids that express shLuc, aptamer alone or shLuc-aptamer fusions. Transfected cells were sorted 7 days after transfection. Compared to HEK293 cells, the percentage of mCherry positive cells was much lower because no drug selection was applied. Typically, the brightest 5 to 10% of cells were collected. A second sort was performed 14 days later. If a decrease in mCherry signal was observed, a third sort was performed.
(§1) For the lentivirus challenge, 5×10^4 HEK293 cells stably expressing the aptamer alone, the shRNA alone or the shRNA-aptamer fusions were transduced with HIV7-GFP lentivirus particles at an MOI of 0.3 in 500 μl cell culture medium. Cells were harvested 10 days post-transduction and analyzed by FACS. For an initial HIV challenge, 5×10^4 Ghost(3)X4/R5 cells stably expressing shRNA alone or shRNA-aptamer fusions were infected with HIV-1 Ba-L strain at an MOI of 0.02 in 500 μl medium. The HIV concentration of cells in culture was determined using a P24 assay with an Alliance HIV-1 P24 ELISA kit. (PerkinElmer, Waltham, Mass., USA). For a long term HIV challenge, 1×10^5 CCRF-CEM cells stably expressing shRNA or shRNA-aptamer fusions were infected with HIV-1 NL4-3 viruses at MOI of 0.02 in 500 μl medium. […]
To test if the shRNA-fusions can exert inhibition during subsequent infection cycles using replication competent HIV, stable Ghost3+CXCR4+CCR5 cell lines expressing the shLuc alone and the shLuc-S1R1, shLuc-S3R1 and shLuc-53R3 fusions were generated (abbreviated as Ghost3 cells in following text) (Morner, et al., 1999). […] The HIV concentration in cultures was monitored by P24 assay for 9 days.

HIV = conditions: 10% FBS cell culture; cited from earlier work
HIV7-GFP lentivirus = assay: Single cycle lentivirus HIV7-GFP challenge of stable HEK293 cells, FACS; assay type: cell-based, HIV; conditions: aptamer alone expressed directly from U6 promoter, HEK293, MOI 0.3, FACS 10 days after transduction
From the text: A direct functional assay was used to test the inhibitory effect of the aptamer candidates for combinational gene therapy in T cells or hematopoietic stem cells (HSC). To this end, plasmids (pJR255) consisting of: 1) a U6 promoter for inducing the expression of the aptamers, 2) a G418 resistant cassette for selection, and 3) an mCherry marker for cell purification and functional analysis were generated. (FIG. 11). RNAs expressed from U6 (pol III) promoter lack nucleus export signals and stay in the nucleus (18,19,20,21). Integrase functions primarily in the nucleus. […] Each population of cells was transduced with lentiHIV particles at an MOI of 0.3. The transduced cells were analyzed by FACS 10 days after transduction to minimize the effects of GFP from nonintegrated viral DNA. If an aptamer exerts any inhibition of HIV integrase, the percentage of GFP and mCherry double-positive cells should be reduced compared to the control.
For the lentivirus challenge, 5×10^4 HEK293 cells stably expressing the aptamer alone, the shRNA alone or the shRNA-aptamer fusions were transduced with HIV7-GFP lentivirus particles at an MOI of 0.3 in 500 μl cell culture medium. Cells were harvested 10 days post-transduction and analyzed by FACS. […] The HIV concentration of cells in culture was determined using a P24 assay with an Alliance HIV-1 P24 ELISA kit. […]

[1] = biological target: T1, HIS tagged HIV-1 Integrase (HIS-IN) (Human immunodeficiency virus type 1 group M subtype B, UniProt P12497, C1427S/F1332K); assay type: binding
T1 construct: HIS tagged HIV-1 Integrase (HIS-IN) expression vector; made in house; host or cells: E. coli strain C3016
Experimental: The gel mobility shift assay was carried out as described (Zhou, et al, 2009). RNA aptamers were transcribed from annealed oligonucleotide pairs (Table 1) containing T7 promoter sequences using Megashortscript T7 transcription kit (Thermofisher Scientific, Waltham, Mass., USA). Percentage binding was determined by Image J (http://imagej.nih.gov/ij/index.html). ^32P labeled and folded aptamers (final concentration of 2 nM) were incubated with HIS-IN protein (final concentration of 0, 20, 40, 80, 160 and 320 nM) at 37° C. for 30 min. The complexes were then separated by 5% native polyacrylamide gel. Autoradiographs were acquired via Typhoon phosphorimaging system (GE Healtcare Life Science, Pittsburgh Pa. 15264, USA). Digital images were imported and analyzed by ImageJ software (http://imagej.nih.gov/ij/index.html). 50 percent binding values were determined by the Prism 6 software (GraphPad Software Inc) using non-linear curve regression. Northern analysis of total or fractionated RNAs was carried out as described (Castanott, et al., 2009) using probes listed in primer list (Table 1). Quantification of relative band intensity was measured and calculated using Image J software.

firefly luciferase = assay: Luciferase assay in HEK293 clone stably expressing firefly luciferase; assay type: cell-based; conditions: U6 driven shLuc or shLuc-aptamer fusion, Day 2 or Day 3 after transfection
Experimental: A HEK293 cell clone stably expressing firefly luciferase was transfected with the plasmids expressing the shLuc or the shLuc-aptamer fusions. Cells were harvested two or three days post-transfection and their firefly luciferase activities were determined by the Luciferase Assay System (Promega, Madison, Wis., USA).
Using a luciferase assay, export of the shRNA-aptamer fusion into the cytoplasm was tested. […] (FIG. 4B). […] Northern blot analyses on fractionated samples were performed to further assess the distribution and processing of the shLuc-aptamer fusion.

HIV-1 NL4-3 = assay: Long term HIV challenge of stable CCRF-CEM cells, p24 assay; assay type: cell-based; conditions: pNL4-3 MOI 0.01, monitored six weeks
Experimental: To generate stable CCRF-CEM cell lines, 2 million cells were transfected with […]-based plasmids, that express shLuc, shLuc-S1R1, shLuc-S3R1 and shLuc-S3R3, by electroporation using the Nucleofactor kit according to the manufacturer's protocol (Lonza, Basel, Switzerland). G418 selection and FACS were performed similar to that of HEK293 cells.
as §1, with “USA).” for “USA). For a long term HIV challenge, 1×10^5 CCRF-CEM cells stably expressing shRNA or shRNA-aptamer fusions were infected with HIV-1 NL4-3 viruses at MOI of 0.02 in 500 μl medium.”
The long-term efficacy of shRNA-aptamer fusions in CD4 positive T cells was tested using CEM cells stably expressing shLuc, shLuc-S3R3, shS1 or shS1-S3R3. […] HIV concentrations were monitored for six weeks by p24 assay (FIG. 8). […] In summary, anti-integrase aptamer expressed as an shRNA-aptamer fusion can confer long term resistance to HIV-1 replication in T cells. […]

[2] = Human immunodeficiency virus 1, BAL, 216 h, read-out: inhibition of HIV replication

In the case of Cc1nnc(C(=O)NC(C)(C)c2nc(C(=O)NCc3ccc(F)cc3)c(O)c(=O)n2C)o1 [Raltegravir, reference compound], the inhibition at 0.002 µM (HIV-1 Ba-L strain; [2]) is given as 96%, the inhibition at 0.02 µM (HIV-1 Ba-L strain; [2]) is given as greater than 99% and the IC50 (HIV) is given as 2 nM. The IC95 (HIV) was 20 nM.

For “S3R3: anti-HIV integrase RNA aptamer; variable region CGTCGTATGCTGCGCCATGGGGTGGACTG (SEQ ID NO:5) (variable region only, further chemistry not given here)”, the “HIV inhibition, in words” value (HIV-1 Ba-L strain; Ba-L, Ghost3 cells, p24 monitored for 9 days) was “weaker than a low dose of Raltegravir”, the “inhibition of HIV-7GFP integration” value (HIV7-GFP lentivirus) was “did not inhibit” and the Kd ([1]; 2 nM 32P labeled aptamer, HIS-IN 0-320 nM, 37° C. 30 min, read-out: binding affinity to HIS-IN (50 percent binding value)) was 47 nM. For the same molecule, the “binding affinity to HIS-IN compared to S1R1” value ([1]; gel shift) was “higher binding affinity”.

B1: shLuc: U6 promoter driven shRNA targeting luciferase with an artificial 10 bases loop (nucleic acid)
chain 1: CACCGCTTACGCTGAGTACTTCGAAATTGAAGCTTGTTTCGAAGTACTCAGCGTAAG
chain 2: AAAACTTACGCTGAGTACTTCGAAACAAGCTTCAATTTCGAAGTACTCAGCGTAAGC
modifications: the letters are possibly those of the target site
notes: U6 promoter driven shRNA targeting luciferase with an artificial 10 bases loop
In the case of B1, the “inhibition of luciferase activity” value (firefly luciferase) is reported as “slightly stronger”.

B2: S3R1: anti-HIV integrase RNA aptamer, oligos JRO502/JRO503 (SEQ ID NO: 15, 16) (nucleic acid)
DNA 1: CACCGCGGGCCCTAGACGCGCTGCCGTGGAGGAGGAGGTTGGTGGCGCGAGAGGTG
DNA 2: AAAACACCTCTCGCGCCACCAACCTCCTCCTCCACGGCAGCGCGTCTAGGGCCCGC
modifications: listed as DNA, chemistry not fully specified; the letters are possibly those of the target site
With B2 the “inhibition of HIV-7GFP integration” value (HIV7-GFP lentivirus) was “did not inhibit”.

B3: shLuc-S3R3: shLuc-aptamer fusion with integrase aptamer S3R3 (SEQ ID NO: 23, 24) (nucleic acid)
DNA 1: CACCGCTTACGCTGAGTACTTCGAAACAAGGAGGACGATGCGGGCCGTCGTATGCTGCGCCATGGGGTGGACTGGGTGGCGCGAAGTTCGAAGTACTCAGCGTAAG
DNA 2: AAAACTTACGCTGAGTACTTCGAACTTCGCGCCACCCAGTCCACCCCATGGCGCAGCATACGACGGCCCGCATCGTCCTCCTTGTTTCGAAGTACTCAGCGTAAGC
modifications: expressed or natural sequence; the letters are possibly those of the target site
For B3, the “inhibition of HIV replication (relative P24 concentration compared to shLuc control)” value (HIV-1 Ba-L strain; Ghost3 cells expressing shRNA or shRNA-aptamer fusion, Ba-L MOI 0.02, Day 9) was ~85% and 78% and the “viral concentration (p24) relative to control (shLuc)” value (HIV-1 NL4-3) was “more than three orders of magnitude lower”.
